Test results from patent US9790211B2, “5-amino-quinoline-8-carboxamide derivatives as 5-HT4 receptor agonists” (SUVEN LIFE SCIENCES LIMITED, priority 2013, dated 2017).

Assays:
[1] = target: T1, recombinant human 5-HT4 receptor (Homo sapiens, UniProt Q13639); experiment: Determination of EC50 values for 5-HT4 receptor (CHO cells, pCRE-Luc reporter); assay type: cell-based; conditions: for Emax: CHO; for EC50: CHO cells, human 5-HT4 receptor, luciferase reporter, 4 hours incubation
T1 construct: expressed in transfected cells
T1 sequence (Q13639 whole entry): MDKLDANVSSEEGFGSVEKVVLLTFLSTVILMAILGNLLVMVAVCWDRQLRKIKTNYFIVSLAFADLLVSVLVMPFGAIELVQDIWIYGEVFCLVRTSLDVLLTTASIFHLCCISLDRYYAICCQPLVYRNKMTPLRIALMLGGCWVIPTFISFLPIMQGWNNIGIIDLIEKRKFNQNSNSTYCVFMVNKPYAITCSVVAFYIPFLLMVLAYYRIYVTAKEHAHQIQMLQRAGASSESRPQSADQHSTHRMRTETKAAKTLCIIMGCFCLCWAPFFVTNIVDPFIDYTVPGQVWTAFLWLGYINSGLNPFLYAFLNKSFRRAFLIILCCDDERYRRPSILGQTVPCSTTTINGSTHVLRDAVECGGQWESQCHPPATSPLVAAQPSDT
Description: Determination of EC50 Values for 5-HT4 Receptor
A stable CHO cell line expressing recombinant human 5-HT4 receptor and pCRE-Luc reporter system was used for cell-based assay. The assay offers a non-radioactive based approach to determine binding of a compound to GPCRs. In this specific assay, the level of intracellular cyclic AMP, which is modulated by activation, or inhibition of the receptor is measured. The recombinant cells harbor luciferase reporter gene under the control of cAMP response element.
The above cells were grown in 96 well clear bottom white plates in Hams F12 medium containing 10% fetal bovine serum (FBS). Prior to the addition of compounds or standard agonist, cells were serum starved overnight. Increasing concentrations of test compounds were added in OptiMEM medium to the cells. The incubation was continued at 37° C. in CO2 incubator for 4 hours. Medium was removed and cells were washed with phosphate buffered saline. The cells were lysed and luciferase activity was measured in a Luminometer. Luminescence units were plotted against the compound concentrations using Graphpad software.

[2] = Rodent pharmacokinetic study; assay type: in vivo, Male wistar rats; conditions: plasma, Wistar/Male rat; for bioavailability: 3 mg/kg oral vs 1 mg/kg intravenous
Description: Male wistar rats (225±25 grams) were used as experimental animals. Three to five animals were housed in each cage. Two days prior to dosing day, male wistar rats (225-250 grams) were anesthetized with isoflurane for surgical placement of jugular vein catheter. Animals were fasted over night before oral dosing (p.o) and food pellets were allowed 2 hours post dosing, whereas during intravenous dosing food and water were provided as ad libitum. Three rats were dosed with compounds of formula (I) (3 mg/kg) orally and intravenously (1 mg/kg).
At each time point blood was collected through jugular vein and immediately replenish with an equivalent volume of normal saline from freely moving rats. Collected blood was transferred into a labeled eppendr off containing 10 μL of heparin as anticoagulant. Typically blood samples were collected as following time points: Pre dose, 0.08 (only i.v.), 0.25, 0.5, 1, 2, 4, 6, 8, and 24 hours post dose (n=3). Blood was centrifuged at 4000 rpm for 10 minutes. Plasma was prepared and stored frozen at −20° C. until analysis. The concentrations of the compounds of formula (I) were quantified in plasma by qualified LC-MS/MS method using suitable extraction technique. The compounds of formula (I) were quantified in the calibration range around 2-2000 ng/mL in plasma. Study samples were analyzed using calibration samples in the batch and quality control samples spread across the batch.
Pharmacokinetic parameters Cmax, Tmax, AUC1, T1/2 and Bioavailability were calculated by non-compartmental model using standard non-coinpartmental model by using WinNonLin 5.0.1 or Phoenix WinNonlin 6.2 version Software package.

[3] = Rodent brain penetration study; assay type: in vivo, Male Wistar rats; conditions: male, Wistar, rat, brain, po, 3 mg/kg, 3 mg/kg oral (gavage), read-out: Single dose Brain Penetration (Cb/Cp)
Description: Male Wistar rats (225±25 grams) were used as experimental animals. Three animals were housed in each cage. Animals were given water and food ad libitum throughout the experiment and maintained on a 12 hours light/dark cycle. Brain penetration was determined in discrete manner in rats. One day prior to dosing day, male wistar rats (225-250 grams) were acclimatized. After acclimatization the rats were grouped according to their weight. In each group, 3 animals were kept in individual cage and allowed free access to food and water. At each time point (0.50, 1, and 2 hours) n=3 animals were used. The compounds of formula (I) were suitably preformulated and administered orally at (free base equivalent) 3 mg/kg. Blood samples were removed via, cardiac puncture by using isoflurane anesthesia. The animals were sacrificed to collect brain tissue. Plasma was separated and brain samples were homogenized and stored frozen at −20° C. until analysis. The concentrations of the compounds of formula (I) in plasma and brain were determined using LC-MS/MS method. The compounds of formula (I) were quantified in plasma and brain homogenate by qualified LC-MS/MS method using suitable extraction technique. The compounds of formula (I) were quantified in the calibration range of 1-500 ng/mL in plasma and brain homogenate. Study samples were analyzed using calibration samples in the batch and quality control samples spread across the batch. Extent of brain-plasma ratio was calculated (Cb/Cp).

Male Wistar rats = experiment: Object recognition task model; assay type: in vivo; conditions: dose mg/kg: Ex 1 0.1, Ex 2 0.03, Ex 4 0.03, Ex 13 1, Ex 23 0.01, Ex 37 10, Ex 43 0.3; for Exploration time mean ± S.E.M, Familiar object / Exploration time mean ± S.E.M, Novel object: choice trial T2, p.o.; for Inference: p.o.
Description: The cognition enhancing properties of compounds of this invention were estimated by using this model.
Male Wistar rats (230-280 grams) were used as experimental animals. Four animals were housed in each cage. Animals were kept on 20% food deprivation before one day and given water ad libitum throughout the experiment and maintained on a 12 hours light/dark cycle. Also the rats were habituated to individual arenas for 1 hour in the absence of any objects.
One group of 12 rats received vehicle (1 mL/Kg) orally and another set of animals received compound of the formula (I) either orally or i.p., before one hour of the familiar (T1) and choice trial (T2).
The experiment was carried out in a 50×50×50 cm open field made up of acrylic. In the familiarization phase, (T1), the rats were placed individually in the open field for 3 minutes, in which two identical objects (plastic bottles, 12.5 cm height×5.5 cm diameter) covered in yellow masking tape alone (a1 and a2) were positioned in two adjacent corners, 10 cms from the walls. After 24 hours of the (T1) trial for long-term memory test, the same rats were placed in the same arena as they were placed in T1 trial. Choice phase (T2) rats were allowed to explore the open field for 3 minutes in presence of one familiar object (a3) and one novel object (b) (Amber color glass bottle, 12 cm high and 5 cm in diameter). Familiar objects presented similar textures, colors and sizes. During the T1 and T2 trial, explorations of each object (defined as sniffing, licking, chewing or having moving vibrissae whilst directing the nose towards the object at a distance of less than 1 cm) were recorded separately by stopwatch. Sitting on an object was not regarded as exploratory activity, however, it was rarely observed.
T1 is the total time spent exploring the familiar objects (a1+a2).
T2 is the total time spent exploring the familiar object and novel object (a3+b).
The object recognition test was performed as described by Behaviour Brain Research, (1988), 31, 47-59.

sAPPα = experiment: Estimation of mice brain cortical sAPPα levels (ELISA); assay type: in vivo; conditions: s.c., 60 minutes post treatment
Description: The control group of mice received sterile water for injection subcutaneously (s.c.). […] Mice were sacrificed 60 minutes after the drug injection by cervical dislocation, the brains were quickly isolated and the cortex was dissected at −20° C. The cortex was immediately kept on a dry ice and weighed before being stored at −80° C. until Enzyme-linked immunosorbent assay (ELISA) was performed. • 1. Brain tissues were thawed and Tris Buffer Saline containing protease inhibitors (TBS, 4 times by volume) added (0.8 mL/200 mg tissues). • 2. Brain tissue samples were homogenized using glass-Teflon homogenizer at 10 strokes. The resulting homogenates were centrifuged at 15,000 rpm at 4° C. for 60 minutes. • 3. The supernatant was discarded and to the precipitate, 4 times volume (0.8 mL/200 mg tissues) of TBS was added. Again homogenized followed by centrifugation at 15,000 rpm 4° C. for 30 minutes. • 4. From the above centrifuged mixture the supernatant was discarded and 10 times volume of 6M Guanidine-HCl in 50 mM Tris buffer pH: 7.6 (500 μL/50 mg tissues) was added. The resulting solution was sonicated for 5 seconds, 4 times. • 5. Resulting mixture was incubated at the RT for 30 minutes, followed by centrifugation at 15,000 rpm, 4° C. for 30 minutes. From this 5 μL of supernatant solution was taken and diluted with 155 μL of EIA buffer (dilution factor 32). Measurement of sAPPα by ELISA Kit: To investigate the role of an acute treatment of test compound on sAPPα levels, we measured the expression of this protein in homogenates from the cortex of treated and untreated mice by ELISA assay. The entire procedure was followed as described in the ELISA kit manual (Mouse/Rat sAPPα ELISA, Catalog Number: JP27415, […], Hamburg, Germany). Statistical analyses were performed using the Graph Pad Prism (Version 4). Data are Mean±SD of sAPPa levels expressed as percentage of control values (mice which received water for injection). Values were compared between the different groups by using unpaired t test. The significance level was set at *p<0.05; […]; ***<0.001.

[4] = tested on: Scopolamine Induced amnesia; experiment: Radial arm maze; assay type: in vivo; conditions: p.o., rats
From the text: The cognition enhancing properties of compounds of formula (I) of this invention were estimated by using this model.
Radial arm maze consists of a central hub of 45 cm diameter. Each arm was of dimension 42.5×15×24 cm. The maze was elevated to a height of 1 m above the ground. The animals were placed on a restricted diet until they reached approximately 85% of their free feeding weight. During this diet restriction period animals were habituated to the novel feed (pellets). Once the rats reached approximately 85% of their free feeding weight rats were habituated to the maze on the 1st and 2nd day. […] Animals were randomized on day 2. On the subsequent days the treatment was given as per the allotment: Each animal was introduced into the maze individually for a period of 10 minutes. The arms were baited only once and the animal had to learn the rule that repeated arm entries would not be rewarded. The trial ended once the rat had visited 16 arms or 10 minutes were over or all the pellets were eaten. The arm entries were recorded using the software. Once the trial was over the rat was removed and the maze was cleaned using soap water.

SMILES	Emax [1]	EC50 [1]	AUC(0-t) ([2]; 1 mg/kg intravenous (bolus))	Cmax ([2]; 1 mg/kg intravenous (bolus))	Tmax ([2]; 1 mg/kg intravenous (bolus))	half-life ([2]; 1 mg/kg intravenous (bolus))	AUC(0-t) ([2]; 3 mg/kg oral (gavage))	Cmax ([2]; 3 mg/kg oral (gavage))	Tmax ([2]; 3 mg/kg oral (gavage))	half-life ([2]; 3 mg/kg oral (gavage))	bioavailability [2]	Kp [3]	Exploration time mean ± S.E.M, Familiar object (Male Wistar rats)	Exploration time mean ± S.E.M, Novel object (Male Wistar rats)	Inference (Male Wistar rats)	increase in the mice brain cortical sAPPα levels (sAPPα; 0.3 mg/kg)	increase in the mice brain cortical sAPPα levels (sAPPα; 1.0 mg/kg)	Reversal of Scopolamine Induced amnesia - Effective dose range [4]
CC(C)(O)CN1CCC(F)(CNC(=O)c2cc(F)c(N)c3cccnc23)CC1.O=C(O)C(O)C(O)C(=O)O [Example 43, 5-Amino-6-fluoro-N-{[4-fluoro-1-(2-hydroxy-2-methylpropyl)-4-piperidinyl]methyl} quinoline-8-carboxamide L(+)-tartarate]	43%	2.9 nM	362 ± 83 ng·h/mL	306 ± 47 ng/mL	4.8 min	114 ± 54 min	373 ± 39 ng·h/mL	231 ± 40 ng/mL	19.8 ± 8.4 min	204 ± 132 min	34 ± 4%	0.93 ± 0.26	9.30 ± 0.93 s	16.09 ± 2.63 s	Active	–	–	–
Nc1c(Cl)cc(C(=O)NCC2(F)CCN(CC3(O)CCOCC3)CC2)c2ncccc12.O=C(O)C(O)C(O)C(=O)O [Example 27, 5-Amino-6-chloro-N-{[4-fluoro-1-(4-hydroxytetrahydro-2H-pyran-4-ylmethyl)-4-piperidinyl]methyl}quinoline-8-carboxamide L(+)-tartarate]	63%	0.6 nM	401 ± 15 ng·h/mL	448 ± 41 ng/mL	4.8 min	102 ± 24 min	236 ± 72 ng·h/mL	173 ± 48 ng/mL	15 min	–	20 ± 6%	0.4 ± 0.02	–	–	–	–	–	–
Nc1c(Cl)cc(C(=O)NCC2CCN(CC3(O)CCOCC3)CC2)c2ncccc12.O=C(O)C(O)C(O)C(=O)O [Example 23, 5-Amino-6-chloro-N-{[1-(4-hydroxytetrahydro-2H-pyran-4-ylmethyl)-4-piperidinyl]methyl}quinoline-8-carboxamide L(+)-tartarate]	67%	–	–	–	–	–	–	–	–	–	–	–	8.80 ± 1.46 s	16.80 ± 2.45 s	Active	42%	33%	0.01-0.1 mg/kg, p.o.
CC(C)(O)CN1CCC(F)(CNC(=O)c2cc(Cl)c(N)c3cccnc23)CC1.O=C(O)C(O)C(O)C(=O)O [Example 37, 5-Amino-6-chloro-N-{[4-fluoro-1-(2-hydroxy-2-methylpropyl)-4-piperidinyl]methyl} quinoline-8-carboxamide L(+)-tartarate]	62%	2.2 nM	274 ± 25 ng·h/mL	324 ± 52 ng/mL	4.8 min	114 ± 6 min	200 ± 49 ng·h/mL	137 ± 37 ng/mL	15 min	78 ± 18 min	24 ± 6%	0.61 ± 0.07	8.45 ± 1.65 s	17.81 ± 1.42 s	Active	–	–	–
Nc1c(Cl)cc(C(=O)NCC2C3CN(CC4CCOCC4)CC23)c2ncccc12.O=C(O)C(O)C(O)C(=O)O (stereo not drawn) [Example 2, 5-Amino-6-chloro-N-{[3-(tetrahydro-2H-pyran-4-ylmethyl)-3-azabicyclo[3.1.0]hex-6-yl]methyl}quinoline-8-carboxamide L(+)-tartarate]	59%	0.5 nM	284 ± 10 ng·h/mL	252 ± 30 ng/mL	4.8 min	96 ± 6 min	531 ± 51 ng·h/mL	140 ± 24 ng/mL	25.2 ± 8.4 min	72 ± 6 min	62 ± 6%	1.31 ± 0.1	7.46 ± 1.30 s	15.75 ± 1.65 s	Active	–	–	–
